Consider 15 molecules from paper PMC13335744, “Functional Analysis of Ligand‐Gated Chloride Channels in a Cnidarian Sheds Light on the Evolution of Inhibitory Signaling” (Advanced Science, 2026).

One data set relates to nvpLGIC‐1 – nvpLGIC‐7. In words: Ligand screen by two-electrode voltage clamp, nvpLGIC‐1 – nvpLGIC‐7 expressed individually in Xenopus oocytes. To be noted: for evoked currents: 1 µM–1 mM. It is filed as cell-based, Nematostella vectensis. How it is done: Approximately 2–5 ng of cRNA of nvpLGICs were injected into Xenopus laevis oocytes of stages V and VI. Injected oocytes were incubated at 19 °C in oocyte Ringer's solution (OR‐2) containing (in mM): 82.5 NaCl, 2.5 KCl, 1.0 Na2HPO4,1.0 MgCl2, 1.0 CaCl2, 5.0 HEPES, 0.5 g l^−1 PVP, 1000 U l^−1 penicillin, and 10 mg l^−1 streptomycin. pH was adjusted to 7.3 using NaOH.
(§1) For electrophysiology, whole‐oocyte currents were measured two days after injection using a two‐electrode voltage clamp (TEVC) set‐up with a TurboTec 03X amplifier (npi electronic GmbH, Tamm, Germany) and a pump‐driven solution exchange system combined with the oocyte testing carousel (OTC), controlled by the interface OTC‐20. For nvGluCl‐1, the His‐tagged version was functionally characterized. Standard bath solution contained (in mM): 140 NaCl, 10 HEPES, 1.8 CaCl2, and 1.0 MgCl2, pH was adjusted to 7.4 using NaOH. Solution exchange was controlled using the CellWorks 5.1.1 software (npi electronic). Data were sampled at 0.1–1 kHz and filtered at 20 Hz. Holding potential was −70 mV.
For orientation: Two-electrode voltage clamp is typically applied to oocytes expressing channels or transporters.

Another data set has as its system nematocytes. Also on record: method as in PMID 32452384. Conditions: cited from earlier work.
The next data set relates to nvGluCl‐2 K229 mutants. In words: Two-electrode voltage clamp of oocytes expressing nvGluCl‐2 with substitutions of K229 (K229T, K229R, K229M). The format is cell-based, Nematostella vectensis. From the text:
Full‐length DNA sequences of […] subunits were identified and cloned based on bulk and single cell transcriptomes of N. vectensis. nvpLGIC‐1 – nvpLGIC‐4 were cloned in oocyte expression vector pRSSP6009 [72]. nvpLGIC‐5 and […] DNA sequences were synthesized and cloned in the pCDNA3.1 (‐) vector (BioCat GmbH). They were then subcloned in the vector pRSSP6009 (nvpLGIC‐6) or pRSSP 6013 (nvpLGIC‐5). Site‐directed mutations were introduced in nvGluCl‐2 to create the mutants at position K229, using the Quick‐change mutagenesis method. nvpLGIC‐1 – nvpLGIC‐6 subunits were fused with His6‐tags at their C‐terminus using PCR. His6‐tags were incorporated just before the stop codon without changing any other amino acids. All final constructs were sequenced for confirmation. […]
For electrophysiology, whole‐oocyte currents were measured two days after injection using a two‐electrode voltage clamp (TEVC) set‐up with a TurboTec 03X amplifier (npi electronic GmbH, Tamm, Germany) and a pump‐driven solution exchange system combined with the oocyte testing carousel (OTC), controlled by the interface OTC‐20. […]

In another data set the test system is nvGluCl‐2 (nvpLGIC‐2). In words: Two-electrode voltage clamp of Xenopus oocytes expressing nvGluCl‐2 (nvpLGIC‐2). It is filed as cell-based, Nematostella vectensis. On the procedure:
(§2) Approximately 2–5 ng of cRNA of nvpLGICs were injected into Xenopus laevis oocytes of stages V and VI.
as §1, with “For nvGluCl‐1, the His‐tagged version was functionally characterized.” left out
(§3) Electrophysiological data were analyzed offline, and current amplitudes were assessed using CellWorks Reader 6.2.2 (npi electronic GmbH, Tamm, Germany). Concentration‐response relationships were normalized to the currents obtained with a saturating concentration (I/Imax ). The mean of normalized amplitudes was plotted as a function of ligand concentrations.
(§4) Desensitization kinetics and recovery from desensitization were fitted to a mono‐exponential function: (2) y=yo+Ae^−x/τ where yo is the offset, A is the amplitude, and τ is the time constant.

Another data set relates to nvGluCl‐1 (nvpLGIC‐1). In words: Two-electrode voltage clamp of Xenopus oocytes expressing nvGluCl‐1 (nvpLGIC‐1). The format is cell-based, Nematostella vectensis. How it is done: as §2
as §1, with “For nvGluCl‐1, the His‐tagged version was functionally characterized.” left out
as §3, §4

For another data set, the system named is nvGluCl‐3 (nvpLGIC‐6). In words: Two-electrode voltage clamp of Xenopus oocytes expressing nvGluCl‐3 (nvpLGIC‐6). It is filed as cell-based, Nematostella vectensis. On the procedure: as §2
as §1, with “For nvGluCl‐1, the His‐tagged version was functionally characterized.” left out
as §3, §4

The target of data set [1] is nvpLGIC-1 (Nematostella vectensis pentameric ligand-gated ion channel subunit 1), C-terminal His6 (Nematostella vectensis). In words: native gel or EMSA; blue native PAGE of C-terminally His-tagged receptors expressed in Xenopus laevis oocytes, solubilised with digitonin and purified under non-denaturing conditions on Ni-NTA; run native and partially denatured (SDS 1 h at 37°C; methods say LiDS) to count lower-order intermediates; surface pool detected by IR800 fluorescence, total pool by 35S phosphorimaging.

Data set [2] deals with nvpLGIC-3 (Nematostella vectensis pentameric ligand-gated ion channel subunit 3), C-terminal His6 (Nematostella vectensis). Described as above.
Data set [3] has as its target nvpLGIC-5 (Nematostella vectensis pentameric ligand-gated ion channel subunit 5), C-terminal His6 (Nematostella vectensis). Described as above.
Data set [4] deals with the molecule itself. Described as above.
The mark [5] stands for this setting: also with a mix of nvpLGIC‐1 – nvpLGIC‐7, nvpLGIC‐7 not tested individually.
Setting [6] is: at 500 µM glutamate, single exponential fit.
[7] abbreviates: read-out: EC50, half‐maximal activation, TEVC, holding potential −70 mV.

Take `N[C@H](CO)C(=O)O` [D‐serine]: in the data set with nvpLGIC‐1 – nvpLGIC‐7 (1 mM), the elicited currents entry is on record as “did not elicit currents”.

Turning to `NCCCC(=O)O` [GABA, γ‐aminobutyric acid], in the data set on nvpLGIC‐1 – nvpLGIC‐7, the evoked currents entry is “neither GABA nor glycine (1 µM–1 mM) evoked currents”. In the data set with nematocytes, the elicited currents result is “neither Glu nor GABA elicit currents”. Also, the “activation of K229 mutant channels” value in the data set on nvGluCl‐2 K229 mutants was “still not activated”.

Take `CC(=O)OCC[N+](C)(C)C` [acetylcholine]: the elicited currents entry is listed as “did not elicit currents” in the data set on nvpLGIC‐1 – nvpLGIC‐7 (1 mM) and “elicits an inward Ca^2+ current” with nematocytes.

As to `N[C@@H](CC(=O)O)C(=O)O` [aspartate], the elicited currents entry in the data set with nvpLGIC‐1 – nvpLGIC‐7 (setting [5]) is recorded as “did not elicit currents”.

Take `N[C@@H](CCC(=O)O)C(=O)O` [glutamate]: the evoked currents entry with nvGluCl‐2 (nvpLGIC‐2) (100 µM), in the data set on nvGluCl‐1 (nvpLGIC‐1) (100 µM) and in the data set on nvGluCl‐3 (nvpLGIC‐6) (100 µM) was “evoked large currents” each time. Besides, the “recovery from desensitization, τrecovery” value in the data set with nvGluCl‐2 (nvpLGIC‐2) (30 s desensitizing pulse of 100 µM glutamate) is 31 s; in the data set with nvGluCl‐3 (nvpLGIC‐6) (desensitization by 30 µM glutamate for 30 s) it was 38 s. Besides, the “time constant of desensitization, τdes” value came out at 111 ± 47 ms in the data set with nvGluCl‐2 (nvpLGIC‐2) (setting [6]), 26 ± 3 ms in the data set on nvGluCl‐1 (nvpLGIC‐1) (setting [6]) and 161 ± 93 ms in the data set with nvGluCl‐3 (nvpLGIC‐6) (setting [6]). The half-maximal effective concentration (EC50) was determined as 102 µM in the data set on nvGluCl‐2 (nvpLGIC‐2) (setting [7]); 16 µM with nvGluCl‐1 (nvpLGIC‐1) (read-out: EC50, half‐maximal activation, TEVC, holding potential −70 mV, His‐tagged version); 7 µM with nvGluCl‐3 (nvpLGIC‐6) (setting [7]). The elicited currents entry with nematocytes is listed as “neither Glu nor GABA elicit currents”. Moreover, the “response to glutamate of K229T, K229R, K229M mutants” value in the data set on nvGluCl‐2 K229 mutants (10 mM glutamate) was “almost completely abolished the response”.

Turning to `NC(=O)CC[C@H](N)C(=O)O` [glutamine], in the data set on nvpLGIC‐1 – nvpLGIC‐7 (setting [5]), the elicited currents result is on record as “did not elicit currents”.

As to `NCC(=O)O` [glycine], the evoked currents result in the data set with nvpLGIC‐1 – nvpLGIC‐7 was “neither GABA nor glycine (1 µM–1 mM) evoked currents”.

As for `NCCc1c[nH]cn1` [histamine], the elicited currents result with nvpLGIC‐1 – nvpLGIC‐7 (setting [5]) was “did not elicit currents”.

Regarding `NCCc1c[nH]c2ccc(O)cc12` [serotonin], the elicited currents result in the data set with nvpLGIC‐1 – nvpLGIC‐7 (1 mM) is “did not elicit currents”.

Take `NCCC(=O)O` [β‐alanine]: the elicited currents result with nvpLGIC‐1 – nvpLGIC‐7 (setting [5]) is “did not elicit currents”.

In turn, “nvpLGIC-1 (Nematostella vectensis pentameric ligand-gated ion channel subunit 1), C-terminal His6 (receptor)” showed a stoichiometry N in data set [1] of 5.

In turn, “nvpLGIC-3 (Nematostella vectensis pentameric ligand-gated ion channel subunit 3), C-terminal His6 (receptor)” displayed a stoichiometry N in data set [2] of 5.

In data set [3], “nvpLGIC-5 (Nematostella vectensis pentameric ligand-gated ion channel subunit 5), C-terminal His6 (receptor)” gave a stoichiometry N of 5.

As to picrotoxin [PTx], the IC50 with nvGluCl‐2 (nvpLGIC‐2) (100 µM glutamate, read-out: apparent IC50, inhibition of glutamate-evoked current) was about 10 µM.

B1: human GABAA receptor β3 subunit (hGABRB3), His-tagged (receptor, UniProt P28472 26-473, looked up)
chain: QSVNDPGNMSFVKETVDKLLKGYDIRLRPDFGGPPVCVGMNIDIASIDMVSEVNMDYTLTMYFQQYWRDKRLAYSGIPLNLTLDNRVADQLWVPDTYFLNDKKSFVHGVTVKNRMIRLHPDGTVLYGLRITTTAACMMDLRRYPLDEQNCTLEIESYGYTTDDIEFYWRGGDKAVTGVERIELPQFSIVEHRLVSRNVVFATGAYPRLSLSFRLKRNIGYFILQTYMPSILITILSWVSFWINYDASAARVALGITTVLTMTTINTHLRETLPKIPYVKAIDMYLMGCFVFVFLALLEYAFVNYIFFGRGPQRQKKLAEKTAKAKNDRSKSESNRVDAHGNILLTSLEVHNEMNEVSGGIGDTRNSAISFDNSGIQYRKQSMPREGHGRFLGDRSLPHKKTHLRRRSSQLKIKIPDLTDVNAIDRWSRIVFPFTFSLFNLVYWLYYVN
modifications: metabolically labelled with [35S]methionine; surface pool labelled with the lysine-reactive dye IR800-NHS ester
notes: human GABAA receptor subunit β3 (GABRB3), full-length cDNA from the Harvard Plasmid Repository, subcloned into a Gateway-compatible pNKS2 vector; Positive control for homopentamer formation; also called human GABAA β3; human β3 receptor; source: Xenopus laevis oocytes, cRNA-injected; digitonin-solubilised, purified (Ni-NTA); not shown: His tag, C-terminal, kept
Take B1: the “stoichiometry N” value in data set [4] amounted to 5.

As a reminder, the EC50 is the concentration that produces a half-maximal response. The stoichiometry N is the number of molecules, sites or subunits per partner or assembly. As usually defined, the IC50 is the concentration needed to halve the response being measured.
